Laboratory results taken from publication PMC7961587, “Novel Cell Permeable Polymers of N-Substituted L-2,3-Diaminopropionic Acid (DAPEGs) and Cellular Consequences of Their Interactions with Nucleic Acids” (International Journal of Molecular Sciences, 2021).
Square brackets hold non-standard residues; d marks the D form. Peptide text beside a SMILES is read from it. * marks the point of attachment. 5FAM = O=C1OC2(c3ccc(O)cc3Oc3cc(O)ccc32)c2ccc(C(=O)*)cc21; Acetyl(2-(HOCH2CH2OCH2CH2O)) = O=C(COCCOCCO)*; Dap = NC[C@H](N)C(=O)O; AEEA = NCCOCCOCC(=O)O

Key:
HB2 and MDA-MB-231 cells = assay: Cell permeability and localization by fluorescence microscopy; assay type: cell-based, human; details: for Cell membrane crossing and localization, in words: 10 µM, fluorescence microscopy, HB2 or MDA-MB-231 cells; for Cell Permeablility (Target): cellular localization: fluorescence microscope Olympus IX51, 10 µM fluorescently labeled compound, DAPI nucleus staining
Description: Preliminary cell permeability experiments facilitated the identification of three groups of compounds. […] The first group includes compound 4 and its derivatives (4a and 4b) and the family of compound 5 (5a and 5b). Compounds 4 and 5 are similar in structure and are composed of six residues of diaminopropionic acid (Dap) decorated with side chains of different lengths, terminating with the same highly positive guanidine moiety. […] Both compounds display unique cellular localization. […] We believe that such effective nuclear localisation of the first group of tested compounds is due to the effective mimicking of the nuclear localisation sequence (NLS). Such sequence consists of several positively charged lysines or arginines present in the protein structure. Additionally, side chain length of the polymer molecules seems to be a crucial factor that is optimal for compounds belonging to first group of polymers.
HB2 and MDA-MB-231 cells were seeded on 24-well plates at a density 1.5 × 10^4/well and 4 × 10^4/well, respectively, and incubated in 0.5 mL complete medium for 48 h. Subsequently, cells were washed with phosphate-buffered saline (PBS), and fresh medium with a fluorescently labeled peptide was added to each well at a concentration of 10 µM. For nucleus staining a DAPI solution (ThermoFisher Scientific, Waltham, MA, USA, […] R37606) in PBS was employed in conditions recommended by the supplier. After the incubation (2 h or 24 h), cells were washed thoroughly with PBS, and then a phenol red-free culture medium (FluoroBrite, DMEM) was added. Subsequently, the cells were examined using an Olympus IX51 fluorescence microscope (Olympus, Tokyo, Japan) using appropriate filters: blue for DAPI, green for FITC, and red TAMRA. Next, the images were merged and colocalization of the dyes’ emission were analyzed.

[1] = tested on: MDA-MB-231 or HB-2 cell lines; assay: Cytotoxicity assay: MTT; assay type: cell-based, human; details: for Cytotoxicity at the concentration used in the cell experiments, in words: 10 µM, MTT, Figure S2, HB-2 and MDA-MB-231; for Cytotoxicity (percentage of dead cells): MTT assay, MDA-MB-231 or HB-2 cell lines, greatest concentration of 50 µg/mL, 24 h
Protocol: Cell viability against cell-penetrating compounds was detected by the MTT assay. The HB2 and MDA-MB-231 cells were seeded into 96-well plates at a density of 5 × 10^3/well and 7 × 10^3/well, respectively, and incubated in complete medium (100 µL/well) for 48 h. […] Cells incubated in media without any test compounds were used as control. After incubation, medium containing test compounds was removed, and 225 µL fresh medium with 25 µL 3-(4,5-dimethylthiazol-2-yl)-2,5-diphenyltetrazolium bromide (MTT) was added (0.5 mg/mL per well). After incubation at 37 °C for 4 h, supernatants were removed, and the formazan crystals were dissolved overnight with dimethyl sulfoxide (DMSO; 150 µL/well). Results were analyzed using a microplate reader (SPECTROstar Nano, BMG LABTECH, Ortenberg, Germany) at 570 nm and 690 nm.

[2] = target: dsDNA (76 bp fragment) containing the sequence of beta-actin; assay: Microscale thermophoresis (MST), dsDNA binding; design: species or system Homo sapiens; details: Monolith NT.115, 0.437 µM 5/6-FAM-labeled compound, dsDNA 6.1 nM–200 µM, EDBS buffer pH 8, 32 °C 1 h, scanned at 25 °C, at least two independent experiments, read-out: Binding constant, double-stranded DNA (MST)
Protocol: (§1) Figure 7 Microscale thermophoresis (MST) analysis of dsDNA binding by 5/6-FAM-labeled compounds. The MST analysis. FAM-labeled compounds 1a (A), 4a (B), 5a (C), and ssDNA binding by 5/6-FAM-labeled compounds 1a (E), 4a (F), 5a (G) was performed using the Monolith NT.115 instrument (NanoTemper). Binding was measured between increasing concentrations (6.1 nM–200 µM) of dsDNA (76 bp fragment) and 0.437 µM of the indicated compounds labeled with 5/6-FAM. Control experiments were performed with DNA and 5/6-FAM dye (D,H).
(§2) Figure 9 Microscale thermophoresis (MST) analysis of dsDNA binding by 5/6-FAM-labeled compounds. The MST analysis of dsDNA binding by 5/6-FAM-labeled compounds 13a (A) and 14a (B), and ssDNA binding by 5/6-FAM-labeled compounds 13a (D) and 14a (E) was performed using the Monolith NT.115 instrument (NanoTemper). Binding was measured between increasing concentration (6.1 nM–200 µM) of dsDNA (76 bp fragment) and 0.437 µM of the indicated compounds labeled with 5/6-FAM. A control experiment was performed with DNA and 5/6-FAM dye (C,F).
(§3) Microscale thermophoresis was performed using the Monolith NT.115 instrument (NanoTemper Technologies GmbH, Munich, Germany). Binding between dsDNA (76 bp) or ssDNA (76 nt) fragments and test compounds labeled with 5/6-FAM was measured. […] All data were analyzed using MO Affinity Analysis software (NanoTemper, Munich, Germany).

ssDNA (76 nt) fragment = assay: Microscale thermophoresis (MST), ssDNA binding; design: species or system Homo sapiens; details: Monolith NT.115, 0.437 µM 5/6-FAM-labeled compound, EDBS buffer pH 8, 32 °C 1 h, scanned at 25 °C, at least two independent experiments, read-out: Binding constant, single-stranded DNA (MST)
Protocol: as §1, §2, §3

[3] = tested on: 76 bp dsDNA fragment containing the sequence of β-actin; assay: Surface plasmon resonance (SPR), dsDNA binding; design: species or system Homo sapiens; details: 50 and 100 µM compound over immobilized 76 bp dsDNA, HBS-EP buffer
Protocol: Standard surface plasmon resonance (SPR) analyses using a Biacore T200 (GE Healthcare, Warsaw, Poland) were performed essentially as described in the manufacturers’ manual. DNA binding by all tested compounds was studied using a 5′-biotinylated 76 nt ssDNA or 76 bp dsDNA fragment containing the sequence of β-actin (Homo sapiens), immobilized on a streptavidin matrix-coated sensor chip SA (GE Healthcare, Warsaw, Poland). All oligonucleotides were commercially synthesized (oligo.pl, Poland; Figures S3 and S4). The dsDNA was immobilized on the sensor surface to yield a final value of ~50 RU for dsDNA or ~100 RU. Experiments were performed at 25 °C, and the running buffer was HBS-EP (150 mM NaCl, 10 mM HEPES (pH = 7.4), 3 mM EDTA, and 0.05% Surfactant P20). In binding experiments, the buffer flow rate was set to 15 µL/min, and in kinetic experiments, the buffer flow rate was 30 µL/min. The data were analyzed using Biacore T200 evaluation software (GE Healthcare, Warsaw, Poland). The results are presented as sensorgrams obtained after subtracting the background response signal from a reference flow cell and from a control experiment with buffer injection.
Figure 2S. Cytotoxicity of compounds 1a–9a as assessed by the MTT assay. Two different cell lines were used: A) HB‐2 and B) MDA‐MB‐231.
Figure 3S. Surface plasmon resonance SPR analysis of double‐stranded DNA (dsDNA) binding by various peptidomimetics. The SPR analysis of dsDNA binding was performed using: A) 50 μM and B) 100 μM of the indicated compounds, flowed over the SA sensor chip surface with immobilized 76 bp biotinylated DNA fragment containing the sequence of beta‐ actin (Homo sapiens). Injections were performed in HBS‐EP buffer. HBS‐EP was also used as […]
Figure 4S. SPR analysis of DNA binding by compound 5a. […] (C) Kinetic constants calculated from at least three experiments using Biacore T200 Evaluation Software […]

Cell Permeablility (Target): cellular localization (HB2 and MDA-MB-231 cells)	Molecule	Cell membrane crossing and localization, in words (HB2 and MDA-MB-231 cells)	Cytotoxicity at the concentration used in the cell experiments, in words [1]	DNA binding class set arbitrarily from the SPR experiment (Figure S3) [3]	Cytotoxicity (percentage of dead cells) [1] [%]	other results
cytoplasm	5′,6-FAM -O2Oc-(Har)6-O2Oc-NH2 [3a]	partially visible in the cytoplasm in the form of granules	slightly cytotoxic	–	–	–
nucleus	N=C(N)NCCOCCOCC(=O)NC[C@H](NC(=O)COCCOCCNC(=O)c1ccc2c(c1)C(=O)OC21c2ccc(O)cc2Oc2cc(O)ccc21)C(=O)N[C@@H](CNC(=O)COCCOCCNC(=N)N)C(=O)N[C@@H](CNC(=O)COCCOCCNC(=N)N)C(=O)N[C@@H](CNC(=O)COCCOCCNC(=N)N)C(=O)N[C@@H](CNC(=O)COCCOCCNC(=N)N)C(=O)N[C@@H](CNC(=O)COCCOCCNC(=N)N)C(=O)N[C@@H](CNC(=O)COCCOCCNC(=N)N)C(=O)N[C@@H](CNC(=O)COCCOCCNC(=N)N)C(=O)NCCOCCOCC(N)=O [compound 14a, 5′,6-FAM-O2Oc-[Dap(GO2)]8-O2Oc-NH2]	efficiently penetrate the membrane and localized in the nucleus	–	–	–	–

More lines, now with the values behind:

Molecule	Cell Permeablility (Target): cellular localization (HB2 and MDA-MB-231 cells)	Cell membrane crossing and localization, in words (HB2 and MDA-MB-231 cells)	Cytotoxicity at the concentration used in the cell experiments, in words [1]	DNA binding class set arbitrarily from the SPR experiment (Figure S3) [3]	Cytotoxicity (percentage of dead cells) [1] [%]	other results
5′,6-FAM -O2Oc-(D-arg)6-O2Oc-NH2 [2a]	cytoplasm	partially visible in the cytoplasm in the form of granules	slightly cytotoxic	–	–	–
5′,6-FAM [compound 10, reference compound]	–	–	–	–	–	Kd [2]: 639 ± 703 µM; Kd (ssDNA (76 nt) fragment): 399 ± 497 µM
5′,6-FAM-O2Oc-(Arg)6-O2Oc-NH2 [1a]	cytoplasm	partially visible in the cytoplasm in the form of granules	slightly cytotoxic	–	–	Kd [2]: 7.4 ± 0.1 µM; Kd (ssDNA (76 nt) fragment): 0.02 ± 0.04 µM
NCCOCCOCC(=O)NC[C@H](NC(=O)COCCOCCNC(=O)c1ccc2c(c1)C(=O)OC21c2ccc(O)cc2Oc2cc(O)ccc21)C(=O)N[C@@H](CNC(=O)COCCOCCN)C(=O)N[C@@H](CNC(=O)COCCOCCN)C(=O)N[C@@H](CNC(=O)COCCOCCN)C(=O)N[C@@H](CNC(=O)COCCOCCN)C(=O)N[C@@H](CNC(=O)COCCOCCN)C(=O)NCCOCCOCC(N)=O [8a, 5′,6-FAM-O2Oc-[Dap(O2)]6-O2Oc-NH2] ({5FAM-AEEA}-[Dap](AEEA)[Dap](AEEA)[Dap](AEEA)[Dap](AEEA)[Dap](AEEA)[Dap](AEEA)[AEEA]-NH2)	–	did not cross the cell membrane	–	–	–	–
NC(=O)COCCOCCNC(=O)[C@H](CNC(=O)COCCOCCO)NC(=O)[C@H](CNC(=O)COCCOCCO)NC(=O)[C@H](CNC(=O)COCCOCCO)NC(=O)[C@H](CNC(=O)COCCOCCO)NC(=O)[C@H](CNC(=O)COCCOCCO)NC(=O)[C@H](CNC(=O)COCCOCCO)NC(=O)COCCOCCNC(=O)c1ccc2c(c1)C(=O)OC21c2ccc(O)cc2Oc2cc(O)ccc21 [9a, 5′,6-FAM-O2Oc-[Dap(HO2)]6-O2Oc-NH2] ({5FAM-AEEA}-[Dap](Acetyl(2-(HOCH2CH2OCH2CH2O)))[Dap](Acetyl(2-(HOCH2CH2OCH2CH2O)))[Dap](Acetyl(2-(HOCH2CH2OCH2CH2O)))[Dap](Acetyl(2-(HOCH2CH2OCH2CH2O)))[Dap](Acetyl(2-(HOCH2CH2OCH2CH2O)))[Dap](Acetyl(2-(HOCH2CH2OCH2CH2O)))[AEEA]-NH2)	–	did not cross the cell membrane	–	–	–	–
N=C(N)NCCC[C@H](NC(=O)COCCOCCN)C(=O)N[C@@H](CCCNC(=N)N)C(=O)N[C@@H](CCCNC(=N)N)C(=O)N[C@@H](CCCNC(=N)N)C(=O)N[C@@H](CCCNC(=N)N)C(=O)N[C@@H](CCCNC(=N)N)C(=O)NCCOCCOCC(N)=O [compound 1, O2Oc(Arg)6-O2Oc-NH2]	–	–	–	Moderate	10	–
N=C(N)NCCC[C@@H](NC(=O)COCCOCCN)C(=O)N[C@H](CCCNC(=N)N)C(=O)N[C@H](CCCNC(=N)N)C(=O)N[C@H](CCCNC(=N)N)C(=O)N[C@H](CCCNC(=N)N)C(=O)N[C@H](CCCNC(=N)N)C(=O)NCCOCCOCC(N)=O [compound 2, O2Oc(D-arg)6-O2Oc-NH2]	–	–	–	Moderate	15	–
N=C(N)NCCCC[C@H](NC(=O)COCCOCCN)C(=O)N[C@@H](CCCCNC(=N)N)C(=O)N[C@@H](CCCCNC(=N)N)C(=O)N[C@@H](CCCCNC(=N)N)C(=O)N[C@@H](CCCCNC(=N)N)C(=O)N[C@@H](CCCCNC(=N)N)C(=O)NCCOCCOCC(N)=O [compound 3, O2Oc-(Har)6-O2Oc-NH2]	–	–	–	Weak	10	–
